Data from US12636291B2, “Compositions and methods relating to use of agonists of ALPHA5-containing GABAA receptors” (Centre for Addiction and Mental Health, priority 2019, dated 2026).

What was measured:
old mice = assay: Spontaneous alternation in the Y-Maze (working memory), normal aging; format: in vivo, mouse; settings: GL-II-73 in drinking water 8 weeks (30 mg/kg) vs old mice vehicle (52.6%; young 79.6%), p=0.01
Description: The percentage of alternation during the Y maze test can be considered as an index of working memory performance (50% of alternation corresponding to a random alternation rate). […] ANOVA analysis indicates a significant difference between all groups (F(2;25)=11.34; p=0.0003).
Animals: For the experiments described above, young (n=11, age 2 months) and old male mice (N=23) were purchased from Charles River. Old mice were obtained at the age of 9-10 months and were kept in the animal facility until they reached the age of 22 months. Young mice (2 months old) were purchased when old mice had already reached the age of 22 months. All animals were single housed. Experiments were performed on mice aged 2 months (“young”) or 22 months (“old”) at the beginning of the experimental protocol. The second set of experiments with the Washout group included 8 young mice and 22 old mice. Old mice were split into 3 groups of 7-8 between “Old”, “Old-treated” and “Old-Washout”. Finally, the pilot with the 5×FAD mice was performed with 15 heterozygote 5×FAD mice, bred in the animal facility of the Centre for Addiction and Mental Health, Toronto (ON, Canada). […]
(§1) Spontaneous alternation in the Y-Maze: Mice were tested in a Y maze test as an assessment of working memory. […] The alternation rate was calculated and was expressed as a percentage: […]

SV129 mice = assay: Neurogenesis (proliferation, survival, maturation) in the SV129 mouse model; format: in vivo; settings: compared to VEH
Description: We next assessed the effects of GL-II-73 on neurogenesis using the SV129 mouse model Kim et al. 2017. Neural Plasticity, doi.org.10.1155/2017/5863258. Specifically, we assessed the effects of treatment on neuronal cell proliferation, survival, and maturation. It is now recognized that neurogenesis occurs not only during development, but also in the adult brain. […] Specifically, adult neurogenesis is known to occur in three regions in the mammalian brain: (i) the subgranular zone (SGZ) of the dentate gyrus in the hippocampus, which is a region that is involved in regulating learning and memory; (ii) the subventricular zone (SVZ), which is situated throughout the lateral walls of the brain's lateral ventricles; and (ii) the amygdala. New neurons born in the SGZ migrate into the granule cell layer of the dentate gyrus and eventually become granule cells. These newborn neurons integrate into the existing circuitry and receive functional input. Adult neurogenesis in the hippocampus is therefore defined as the progression from neural stem cell to mature dentate granule neuron. All stages of adult neurogenesis are regulated by physiological activity, including the proliferation, differentiation, fate determination of adult neural stem cells (NSCs) and progenitors, and the survival, maturation, and integration of newborn neurons.
The stages of neurogenesis can be broken down into (i) proliferation, (ii) survival of the newly formed cells, and (iii) their maturation. Each can be evaluated using specific markers for proliferation, survival, and maturation. […] BrdU can be used to show survival of the newly proliferating cells since it is incorporated into the newly synthesized DNA of replicating cells and is then maintained in the newly formed cells. Thus, quantitative immunohistochemistry against BrdU is used as a proxy of survival. Finally, doublecortin can be used as a proxy of maturation. Previous studies have shown that all steps of neurogenesis were down regulated in the SV129 mice, and further that chronic treatment with fluoxetine, a first line monoaminergic antidepressant, increased the neurogenesis in this mouse model. We therefore used this model system to assess the effects of chronic treatment with GL-II-73 on neurogenesis.
Fluoxetine treatment was used as a positive control in each experiment.

heterozygous 5×FAD mice = assay: Spontaneous alternation in the Y-Maze, 5×FAD Alzheimer's disease model pilot; format: in vivo, mouse; settings: 6 months of age, acute i.p. 10 mg/kg vs vehicle, FIG. 23
Protocol: A pilot study was performed in the 5×FAD mouse Alzheimer's disease model system using 15 heterozygous animals tested from the age of 4 to 6 months. The same animals were tested monthly for spontaneous alternation in the Y-Maze test. When they reached the age of 6 months, 50% of the animals were injected i.p. with vehicle or with GL-II-73 (10 mg/kg).
Animals: For the experiments described above, young (n=11, age 2 months) and old male mice (N=23) were purchased from Charles River. Old mice were obtained at the age of 9-10 months and were kept in the animal facility until they reached the age of 22 months. Young mice (2 months old) were purchased when old mice had already reached the age of 22 months. All animals were single housed. Experiments were performed on mice aged 2 months (“young”) or 22 months (“old”) at the beginning of the experimental protocol. The second set of experiments with the Washout group included 8 young mice and 22 old mice. Old mice were split into 3 groups of 7-8 between “Old”, “Old-treated” and “Old-Washout”. […]
as §1

## C#Cc1ccc2c(c1)C(c1ccccc1F)=N[C@H](C)c1c(C(=O)N(C)C)ncn1-2 (stereo in doubt) [GL-II-73, 8-ethynyl-6-(2-fluorophenyl)-N,N,4-trimethyl-4H-benzo[f]imidazo[1,5-a][1,4]diazepine-3-carboxamide]
Old mice
  alternation rate in the Y maze test: higher alternation rate than old mice receiving only vehicle
SV129 mice; chronic treatment (4 weeks), FIG. 13A, FLX p<0.001, GL-II-73 p<0.05
  proliferation: number of K167-positive cells: increased the number of K167-positive cells
SV129 mice; chronic treatment (4 weeks), FIG. 13B
  survival: BrdU-positive cells: increased survival as shown by the increased in BrdU labeling in SV129 mice, as shown in FIG. 13B, even though not reaching significance
SV129 mice; chronic treatment, FIG. 14B, ps<0.01
  maturation index (DCX+cells possessing tertiary dendrites over the total DCX+cells): an increase with both FLX and GL-II-73
Heterozygous 5×FAD mice
  alternation performance in the Y-Maze test: a reversal of this decrease in alternation performance in the GL-II-73 treated group, although also not reaching statistical significance
